The text below walks through data of PMC5809530, “Resculpting the binding pocket of APC superfamily LeuT-fold amino acid transporters” (Cellular and Molecular Life Sciences: CMLS, 2017).

Common to all, as to type: cell-based
The target of assay [1] is T1, SNAT5 (SLC38A5) (Homo sapiens, UniProt Q8WUX1).
T1 construct: full length in pSPORT1, expressed in Xenopus laevis oocytes
As to the kind of experiment: competition with radiolabelled serine uptake in Xenopus oocytes. To be noted: 50 μM serine, 0-10 mM asparagine; pH 8.5, Na+.

Assay [2] deals with T2, PAT2 (SLC36A2) (Rattus norvegicus, UniProt Q8K415, F159I).
T2 construct: full length in pSPORT1, expressed in Xenopus laevis oocytes
T2 sequence (Q8K415 whole entry F159I): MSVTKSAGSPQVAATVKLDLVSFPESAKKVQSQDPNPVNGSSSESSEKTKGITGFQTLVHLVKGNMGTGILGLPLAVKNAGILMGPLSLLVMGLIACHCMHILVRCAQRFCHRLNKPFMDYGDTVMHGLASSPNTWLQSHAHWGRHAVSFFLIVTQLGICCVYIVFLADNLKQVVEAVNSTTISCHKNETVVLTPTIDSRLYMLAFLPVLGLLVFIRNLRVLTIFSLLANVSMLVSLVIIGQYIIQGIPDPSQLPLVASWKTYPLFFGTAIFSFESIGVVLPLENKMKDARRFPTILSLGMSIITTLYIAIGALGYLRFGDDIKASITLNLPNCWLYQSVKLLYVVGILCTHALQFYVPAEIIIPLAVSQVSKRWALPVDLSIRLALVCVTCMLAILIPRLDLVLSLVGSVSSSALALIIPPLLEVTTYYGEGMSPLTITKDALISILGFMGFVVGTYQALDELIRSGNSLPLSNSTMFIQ
The experiment in a line: competition with radiolabelled proline uptake and direct uptake in Xenopus oocytes. The conditions noted are these: 10 μM proline, 0-20 mM α-ABA; Na+-free, pH 5.5.

Assay [3] has as its target PAT2 (SLC36A2) (Rattus norvegicus, UniProt Q8K415). The experiment in a line: competition with radiolabelled proline uptake in Xenopus oocytes. Details: full length in pSPORT1, expressed in Xenopus laevis oocytes. The conditions noted are these: 10 μM proline, 10 mM glycine; Na+-free, pH 5.5.
Assay [4] concerns the target T3, SNAT5 (SLC38A5) (Homo sapiens, UniProt Q8WUX1, A138I).
T3 construct: full length in pSPORT1, expressed in Xenopus laevis oocytes
As to the kind of experiment: radiolabelled alanine uptake and competition with serine uptake in Xenopus oocytes. The conditions noted are these: 50 μM substrate, 0-10 mM competitor; pH 8.5, Na+.

The target of assay [5] is T4, SNAT5 (SLC38A5) (Homo sapiens, UniProt Q8WUX1, A138T).
T4 construct: full length in pSPORT1, expressed in Xenopus laevis oocytes
T4 sequence (Q8WUX1 whole entry A138T): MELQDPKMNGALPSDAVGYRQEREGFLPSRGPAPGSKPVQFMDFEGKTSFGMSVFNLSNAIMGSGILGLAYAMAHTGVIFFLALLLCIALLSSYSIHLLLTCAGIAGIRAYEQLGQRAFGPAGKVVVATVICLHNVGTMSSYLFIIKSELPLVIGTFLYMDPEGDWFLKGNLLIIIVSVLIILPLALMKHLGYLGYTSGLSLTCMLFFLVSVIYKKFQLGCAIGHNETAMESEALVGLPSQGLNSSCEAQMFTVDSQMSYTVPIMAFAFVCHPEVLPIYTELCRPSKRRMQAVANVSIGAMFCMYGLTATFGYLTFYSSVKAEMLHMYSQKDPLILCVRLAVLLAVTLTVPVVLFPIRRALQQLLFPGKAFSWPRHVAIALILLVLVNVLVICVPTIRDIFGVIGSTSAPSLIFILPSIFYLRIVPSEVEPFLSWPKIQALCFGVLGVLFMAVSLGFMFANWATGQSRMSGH
The description is as above. The conditions noted are these: 50 μM substrate, 0-10 mM competitor; pH 8.5, Na+.

Assay [6] concerns the target T1, SNAT5 (SLC38A5). As to the kind of experiment: radiolabelled serine uptake and self-competition in Xenopus oocytes. To be noted: 50 μM serine; pH 8.5, Na+.

T1 sequence (Q8WUX1 whole entry): as the sequence (Q8WUX1 whole entry A138T) above, with T138A counted along it
Chain of PAT2 (SLC36A2) (Rattus norvegicus, UniProt Q8K415) (Q8K415 whole entry): as the sequence (Q8K415 whole entry F159I) above, with I159F counted along it
T3 sequence (Q8WUX1 whole entry A138I): as the sequence (Q8WUX1 whole entry A138T) above, with T138I counted along it

Turning to `NC(=O)C[C@H](N)C(=O)O` [asparagine], the “competition with radiolabelled serine uptake in Xenopus oocytes” value on SNAT5 (SLC38A5) [1] is reported as “measured in the presence of e unlabelled serine, f asparagine, or g alanine”.

As for `CC[C@H](N)C(=O)O` [α-ABA], on PAT2 (SLC36A2) [2], the “competition with radiolabelled proline uptake and direct uptake in Xenopus oocyt” value was “PAT2-F159I not only binds Ser and α-ABA but efficiently translocates these amino acids”.

For the compound `NCC(=O)O` [glycine], on PAT2 (SLC36A2) [3], the “competition with radiolabelled proline uptake in Xenopus oocytes” value is “Glycine and alanine interact with all five carriers”.

`C[C@H](N)C(=O)O` [alanine]: the “radiolabelled alanine uptake and competition with serine uptake in Xenopus oocyt” value at SNAT5 (SLC38A5) [4] is “A138T and A138I mutants gain function and become excellent alanine transporters”; at SNAT5 (SLC38A5) [5], “A138T and A138I mutants gain function and become excellent alanine transporters”.

In the case of `N[C@@H](CO)C(=O)O` [serine], the “radiolabelled serine uptake and self-competition in Xenopus oocytes” value at SNAT5 (SLC38A5) [6] is “Serine is transported well by SNAT5, whereas alanine is transported poorly”.
